1 compound from patent US6203822A, “Gallium-containing compounds for the treatment of infections caused by intracellular pathogens and pathogens causing chronic pulmonary infection” (priority 1996, dated 2001) can be followed below.

Data set [1] relates to infected and uninfected cells. As to conditions: read-out: concentration not toxic in vitro.
The test system of data set [2] is M. tuberculosis strain H37Ra in human macrophages. The experiment in a line: Growth inhibition of M. tuberculosis H37Ra in human monocyte derived macrophages (MDM). The format is cell-based. The procedure: Monocyte derived macrophages (MDM) containing strain H37Ra were incubated for 24 h (FIG. 2A), 48 h (FIG. 2B) or 72 h (FIG. 2C) and macrophages containing the virulent strain Erdman were incubated for 24 h (FIG. 2D) or 48 h (FIG. 2E) in gallium nitrate.
The gallium-containing compounds can also be tested for their ability to inhibit intracellular pathogens in tissue culture assays. In general, in these assays, the macrophages are placed in culture and incubated with the intracellular pathogen at an approximate cell to pathogen ratio of preferably at least 1:1 to about 1:5 cells:pathogen. Exemplary culture conditions are provided in the assays detailed in the Examples. For assays assessing M. tuberculosis infection, freshly adherent monocytes, 12 day-old adherent MDMs, or freshly adherent alveolar macrophages are incubated with M. tuberculosis, MAI or other intracellular bacteria at a ratio of about 1:1 to about 1:5 (phagocyte:bacterium). For M. tuberculosis or MAI, the bacteria are incubated with the phagocyte for 2 hr at 37° C. in RPMI/HEPES media with 2.5% serum or human serum albumin (serum-free). The cells are washed to remove non-adherent bacteria and monolayers are replated with RPMI containing 1% autologous serum (to maintain phagocyte viability but not to sustain extracellular growth of bacteria). Gallium-containing compounds, such as gallium nitrate, with, or without, other agents such as antibiotics, cytokines etc., are added about 24 hr. later and mycobacterial growth in cell lysates is then assessed over the next several days either by the radiometric BACTEC system or by colony-forming units on agarose plates. In each experiment, growth is assessed relative to control monolayers where no drug has been added.
Mononuclear phagocytes from healthy adult volunteers who were tuberculin skin test negative and had no history of mycobacterial infection were isolated and cultured in Teflon wells according to the methods of Schlesinger, et al. (J. Immunol. 150:2920-2930, 1993). […]

`O=[N+]([O-])[O-].O=[N+]([O-])[O-].O=[N+]([O-])[O-].[Ga+3]` [gallium nitrate]: in data set [1], the MNTC turned out to be 1 mM. In addition, in data set [2] (48 and 72 h), the “inhibition of growth versus 24 h” value is reported as “More marked inhibition of growth”. The inhibition of growth result is given as “Inhibition of growth was observed” in data set [2] (24 h) and “dose-dependent inhibition of growth” in data set [2] (about 1 to about 1000 μM).
